Test results reported in patent US5475087A, “Antagonists of human granulocyte-macrophage colony stimulating factor derived from the carboxyl terminus” (Schering Corporation, priority 1994, dated 1995).

What was measured:
[1] = molecular target: GM-CSF receptors on placental membranes; assay: GM-CSF receptor binding assay on placental membranes
Experimental: Placental membranes are prepared by homogenization, centrifugation to remove the 100×g fraction, and thorough washing of the 27,300×g fraction. Protease inhibitors may be present in the homogenization and wash buffers. […] Following incubation for about 1 hour at about 22° C., samples are centrifuged for about 21/2 minutes at 800×g and the placental membrane pellet washed twice with IMDM-10% FCS. Cell pellets are counted on a gamma counter. Saturating concentrations of unlabeled GM-CSF are added to control assays to measure non-specific binding. To measure the displacement of ^125 I-GM-CSF from receptors by polyclonal antibodies, antisera or pre-immune sera are included in the binding assays. Antibodies that recognize GM-CSF are incubated for about 10 minutes with ^125 I-GM-CSF prior to initiating binding by the addition of KG-1 cells, AML-193 cells or placental membranes. The sheep polyclonal antibody 1418, which recognized the GM-CSF receptor, is pre-incubated for about 10 minutes with KG-1 cells, AML-193 cells or placental membranes. Binding is initiated by ^125 I-GM-CSF addition. Placental membranes were prepared by homogenization, centrifugation to remove the 100×g fraction, and thorough washing of the 27,300×g fraction. Protease inhibitors were present in the homogenization and wash buffers. […] Cell pellets were counted on a gamma counter. […]

[2] = test system: GM-CSF receptors on KG-1 cells; assay: GM-CSF receptor binding assay on KG-1 cells; design: species or system human; conditions: 2700 sites/cell, read-out: Kd, low affinity site
Experimental: GM-CSF is radioiodinated by the method of Bolton and Hunter (Bolton, A. E. & Hunter, W. M. (1973) Biochem. J. 133, 529-539) and purified by gel filtration on a Sephadex G-25 column (PD-10, Pharmacia). The resulting ^125 I-GM-CSF has a specific radioactivity of about 1-3×10^6μCi/μMole and a stoichiometry of 0.4-1.2 moles ^125 I per mole of GM-CSF.
The samples are incubated at about 22° C. or 4° C. for 1 hour or 2 hours, respectively. Centrifugation for 21/2 minutes at 600×g yields a cell pellet which is washed twice with IMDM-10% FCS.
To measure the displacement of ^125 I-GM-CSF from receptors by polyclonal antibodies, antisera or pre-immune sera are included in the binding assays. Antibodies that recognize GM-CSF are incubated for about 10 minutes with ^125 I-GM-CSF prior to initiating binding by the addition of KG-1 cells, AML-193 cells or placental membranes. The sheep polyclonal antibody 1418, which recognized the GM-CSF receptor, is pre-incubated for about 10 minutes with KG-1 cells, AML-193 cells or placental membranes. Binding is initiated by ^125 I-GM-CSF addition.
GM-CSF (an article of commerce available, e.g., from Genzyme Corporation, Boston, Mass.) was radioiodinated by the method of Bolton and Hunter [Bolton, A. E. & Hunter, W. M., Biochem., J., 133: 529-539 (1973)] and purified by gel filtration on a Sephadex G-25 column (PD-10, Pharmacia). […]

[3] = test system: GM-CSF stimulation of KG-1 cell proliferation; assay: KG-1 cell proliferation assay (MTT); assay type: cell-based, human
Experimental: The assay for GM-CSF is based on stimulation of proliferation of suitable cells such as KG-1 cells, a cell line established from the bone marrow of a patient with acute myelogenous leukemia. AML-193 cells can also be used in this assay. AML-193 are cells as described in B. Lange et al., Blood, 70: 192-199 (1987). Cells are incubated in microtiter plate wells with dilutions of GM-CSF for about 6 days and then incubated for about an additional 4 hours with the tetrazolium salt MTT (3-(4,5-dimethylthiozol-2-yl)-2,5-diphenyltetrazolium bromide). MTT is converted by mitochondrial dehydrogenase enzymes to a colored reaction product, formazan (Mosmann, I. (1983) J. Immunological Methods 65, 55-63). The formazan is extracted with acidified isopropanol and measured spectrophotometrically. The observed optical density is directly proportional to the log2 cell concentration. The results are expressed as ΔO.D., where ΔO.D. is the optical density of the sample minus the optical density of a baseline control lacking GM-CSF. […] The formazan is extracted with acidified isopropanol and measured spectrophotometrically. […] The results are expressed as ΔO.D., where ΔO.D. is the optical density of the sample minus the optical density of a baseline control lacking GM-CSF. […]

## ^125 I-GM-CSF: GM-CSF radioiodinated by the method of Bolton and Hunter, purified by gel filtration
[1]
  Kd: 0.86 nM
[2]
  Kd: 0.73 nM
[3]
  biological activity compared with unlabeled GM-CSF: same biological activity as unlabeled GM-CSF
